Source: patent US12134664B2, “Muramyl peptide derivatives” (Bharat Biotech International Limited, priority 2015, dated 2024)
Converted amounts (≈) assume the structure as drawn.

Assays:
J774.2A cells = assay: Cytotoxicity assay (MTT); type: cell-based; details: 24 hrs, read-out: IC50 (50% cell death or toxicity)
Procedure: Details of an assay are as explained in example 2.2.
J774.2A cells (2×10^4/well) were plated and incubated overnight. Next day, cells were treated with various concentrations of MDP-ET (10 fold dilutions with a concentration ranging from 0.005 mg/ml to 0.5 mg/ml & 2 mg/ml) and cultured for 24 hrs. Supernatant was discarded and cells were treated with 100 μl of MTT [3-(4,5-Dimethylthiazol-2-yl)-2,5-Diphenyltetrazolium Bromide] (5 mg/ml) and incubated for 3-4 hrs until formozan crystals were formed. Later, supernatant was discarded and crystals were dissolved with DMSO for 5-10 min. Absorbance was read at 540 nm. FIG. 2 represents cell toxicity effect of MDP-ET. X-axis represents concentration in log scale and Y-axis represents % toxicity.

[1] = system: Total IgG1 and IgG2a antibodies; assay: Total IgG1 and IgG2a in sera of OVA-immunized mice (sandwich ELISA); type: in vivo, BALB/c mice
Procedure: Male BALB/c mice were immunized subcutaneously with OVA 100 μg alone or with OVA 100 μg dissolved in saline containing the MDP or MDP-ET analogues (7.5, 15 or 30 μg) on Days 1 and 15. Sera were collected 2 weeks after the last immunization. Total IgG1 and IgG2a antibodies in the sera were measured by Sandwich ELISA.
Measurement of total IgG subtypes such as IgG1 and IgG2a are useful to assess type immunity produced. In mice, IgG1 is integrated with Th2-type response, while Th1-type response is integrated with the production of IgG2a, IgG2b, and IgG3 antibodies. Antibody subclass is indispensable for complement fixation and provides protection. IgG2a and IgG2b can fix the complement stronger than IgG1. Vaccine adjuvants showing broad subclass distribution is beneficial against pathogens. […] But, it didn't induce much significant IgG1 response i.e., Th2 type, than MDP+OVA group.

splenocytes = assay: Splenocyte proliferation of immunized mice (MTT); type: in vivo; details: LPS and Con A
Procedure: Spleens were isolated from immunized mice and were processed to single cell suspension. 96 well flat bottom Micro titer plates were seeded with 1×10^5 cells/well with RPMI1640 media. Cells were treated with OVA. Con A (2 μg/mL) and LPS (10 μg/mL) or medium with a final volume of 200 μl. Plates were incubated at 37° C. with 5% CO2 in an incubator. After 48 h of incubation 20 μl of Triazolyl blue Tetrazolium Bromide (MTT) solution was added to each well, incubated for next 4 h. Untransformed MTT was removed from each well by aspirating the supernatant (180 μL) and replaced with DMSO. The absorbance was read at 570 nm after 15 min.
Immunostimulating substances act through specific (antigen-dependent) T lymphocytes, B lymphocytes, and dendritic cells and also through non-specific mechanisms of action (antigen-independent) that involves granulocytes, macrophages, and NK cells. Being a secondary lymphoid organ, spleen contains a heterogeneous population of lymphocytes to examine the immunostimulant activity. However, proliferations of immune cells like T and B cells are the benchmark for immune potentiation. Mice were immunized with or without OVA or in combination with MDP and MDP-ET. Type of immune response in all treated groups was measured with LPS and Con-A splenocyte proliferation assays depicted in Figure: 3. […] This is essential for B cell expansion.

[2] = system: HBsAg specific IgG antibody; assay: Endpoint titer of HBsAg specific total IgG by ELISA after immunization; type: in vivo, BALB/c mice; details: for HBsAg specific IgG antibody endpoint titer: i.m. Day 0 & 28, Day 42 sera
Procedure: Female BALB/c mice (6-8 week old, n=6/group) were vaccinated intramuscularly (i.m, at two quadriceps) on Day 0 & Day 28 with vehicle control or Hepatitis B antigen (20 μg/mouse/dose/100 μl, 50 μl per quadricep) with and without MDP-ET (10 μg or 50 μg/mouse/dose/100 μl) diluted in Phosphate buffered saline. Prior to immunization, Hepatitis B surface antigen was mixed with MDP-ET, by gentle agitation (1:1 ratio), under sterile conditions. Mice were bled and euthanized on Day 42. Blood was collected & serum was isolated to evaluate analyze antigen specific total IgG antibody titer (as in example 3.1.2) and antibody subclasses (isotypes namely IgG1 or IgG2a or IgG3, as in example 3.1.3).
Serial dilutions of individual serum samples ([…] ranging from 1:50 to 819200) were used to determine the endpoint titer of antigen specific total IgG antibody titer by ELISA. Details of assay protocol as described below, For analysis of antigen specific antibody titer, hepatitis B surface antigen was suspended in 50 mM carbonate bicarbonate buffer, pH 9.6 and coated at a concentration (lug/ml, 100 μl/well) in 96 well plates and kept at 4° C. for overnight. Next day, plates were washed with washing buffer (PBST-Phosphate buffered saline, pH 7.4 with 0.05% Tween) and blocked with blocking buffer (PBS with 1% BSA) at RT for 1-2 hr. ELISA plates were washed again with wash buffer (PBS, 0.1% Tween™20) and added serially diluted (in PBS, 0.1% BSA, 0.05% Tween™20, 0.02% sodium azide) sera from hyper immunized mice and incubated at RT for 1 hr. After incubation, wells were again washed and added Goat Anti-mouse IgG HRP conjugate antibody at a dilution of 1:5000 & incubated for 1 hr at RT. Later, wells were washed, and developed with OPD (O-phenylene diamine) as a substrate for 15 min. Reaction was stopped using 2N H2SO4. Absorbance was read at 490 nm. Threshold (Mean+3SD) was established by taking the absorbance of negative control (PBS) group, followed by the reactive index (ratio of absorbance at a particular dilution & threshold), so as to determine end point titer. Based on this calculation, highest dilution at which reactive index value[…] was considered as endpoint antibody titer dilution. Antigen specific antibody endpoint titer in the presence & absence of MDP-ET was represented as in FIG. 5a.

Wistar rats = assay: Maximum Tolerated Dose test; type: in vivo
Procedure: This particular beneficial property was evidenced by Maximum Tolerated Dose test done using rat as an animal model.
Maximum Tolerated Dose test: Wistar rats (n=6, 3M & 3F) were administered intramuscularly (i.m) with MDP-ET containing fixed adjuvant dose of 10, 50 and 100 μg/animal/200 μl in an ascending manner. Animals were observed daily for a period of 14 days for clinical signs & mortality. Body weight was measured daily. Food and water consumed by animals were also monitored daily for any abnormalities & food and water intake per animal was also calculated. Body temperature was measured for every 4 hours up to 24 hrs, later once in daily up to 7 days and then followed by alternate day up to day 14. Rats were sacrificed on day 14 and organs/tissues such as site of injection, spleen, thymus, brain, lungs, Heart, liver, Kidney were collected and done macroscopic examination. […] It indicates rats are tolerable even at high dose (100 μg/animal). Blood was collected between 24-36 hrs were tested for CRP levels, after the injection. Higher (600-1000 μg/ml, normal range 200-550 μg/ml in rats) CRP levels were found at higher dose (100 μg/animal).
However, due to moderate or high levels of IL-6 levels as found in In-vitro pyrogenicity test, it can be concluded that MDP-ET may be pyrogenic at tested high concentration (100 μg/animal), which in turn correlated with high levels of CRP found immediately after giving dose.

[3] = system: rPvRII specific IgG antibody; assay: Endpoint titer of rPvRII specific IgG by ELISA after immunization; type: in vivo, mouse
human NOD2 = target: T1, human NOD2 (Homo sapiens, UniProt Q9HC29); assay: NOD2 specific reporter assay (SEAP, Quanti blue); type: cell-based; details: HEK-Blue Human NOD2 reporter cells, 24-72 hrs, read-out: EC50 (half maximal response) (converted)
T1 construct: host or cells: HEK-Blue Human NOD2 reporter cells (HEK 293)
T1 sequence (Q9HC29 whole entry): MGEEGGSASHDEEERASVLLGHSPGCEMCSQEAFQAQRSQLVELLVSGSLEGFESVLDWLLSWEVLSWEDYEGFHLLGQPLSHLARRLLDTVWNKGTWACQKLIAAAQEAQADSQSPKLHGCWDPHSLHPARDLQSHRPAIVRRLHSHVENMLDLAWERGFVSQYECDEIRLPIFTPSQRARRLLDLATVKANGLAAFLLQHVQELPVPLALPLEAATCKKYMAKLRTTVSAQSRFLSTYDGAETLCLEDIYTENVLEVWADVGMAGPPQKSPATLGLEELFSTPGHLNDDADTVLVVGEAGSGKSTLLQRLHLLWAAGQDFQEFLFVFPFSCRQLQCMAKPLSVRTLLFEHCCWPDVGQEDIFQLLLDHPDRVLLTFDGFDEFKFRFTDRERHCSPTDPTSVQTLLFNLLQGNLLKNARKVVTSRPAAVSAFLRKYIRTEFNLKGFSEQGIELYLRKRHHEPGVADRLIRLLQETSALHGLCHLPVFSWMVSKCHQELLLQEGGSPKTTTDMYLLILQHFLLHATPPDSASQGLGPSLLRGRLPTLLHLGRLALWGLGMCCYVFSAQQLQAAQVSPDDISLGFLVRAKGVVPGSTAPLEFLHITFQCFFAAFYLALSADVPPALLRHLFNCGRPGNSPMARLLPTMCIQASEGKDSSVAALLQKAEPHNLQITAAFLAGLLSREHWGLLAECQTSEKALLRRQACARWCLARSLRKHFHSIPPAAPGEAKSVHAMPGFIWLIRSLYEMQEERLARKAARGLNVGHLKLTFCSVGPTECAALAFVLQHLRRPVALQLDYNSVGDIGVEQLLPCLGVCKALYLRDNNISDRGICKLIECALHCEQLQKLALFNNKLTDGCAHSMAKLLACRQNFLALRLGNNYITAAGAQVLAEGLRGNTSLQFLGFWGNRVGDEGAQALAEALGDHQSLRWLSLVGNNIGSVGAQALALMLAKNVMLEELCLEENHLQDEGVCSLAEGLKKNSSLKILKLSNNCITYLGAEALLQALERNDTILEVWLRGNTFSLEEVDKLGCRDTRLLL
Procedure: Muramyl dipeptide molecules have the ability to bind to NOD2 receptors that are present on the surface of the immune cells, so as to stimulate immune response. NOD2 (Nucleotide oligomerization domain) receptor is an intracellular pattern recognition receptor (PRRs) recognizes muramyl dipeptide derivatives and stimulates cascade of signaling pathways to induce immune response. […] These cells were prepared by co-transfection of human NOD2 gene and codon-optimized SEAP (secreted embryonic alkaline phosphatase) reporter gene into HEK 293 cells. Upon stimulation of cells with muramyl dipeptide derivative, NFkB gets activated, which inturn secrets SEAP and it was measured in cell supernatant. Experimental details of this in-vitro assay are given as example 2.1.
HEK—Blue Human NOD2 reporter cells (5×10^4/well) were plated and cultured overnight in a humidified CO2 incubator at 37° C. Next day, cells were treated with various concentrations of MDP-ET, (0.001 mg/ml to 1 mg/ml) and cultured for 24-72 hrs. Supernatant was collected and treated with Quanti blue detection reagent at 37° C. for 15-30 min. Absorbance was read at 630 nm. […] To generate dose response curve, highest absorbance shown at tested concentration was taken as 100% response and the least absorbance was taken as 0% response. […]

[4] = system: IgG isotypes (IgG1, IgG2a & IgG3) raised against HBsAg; assay: TH1:TH2 index from HBsAg specific IgG isotypes; type: in vivo, BALB/c mice; details: HBsAg in the presence of MDP-ET (10 & 50 μg/mouse)
Description: It is known that IgG subclasses produced after the immunization against given antigen, primarily determines the function of the antibody or indirectly measures the relative contribution of TH1 versus TH2 type cytokine induction. More specifically, production of IgG1 antibodies induces TH2 type cytokines, whereas production of IgG2a & IgG3 antibodies induces TH1 type cytokines. […] In this context, in the present invention, we determined the levels of IgG isotypes (IgG1, IgG2a & IgG3), raised against HBsAg in the presence or absence of MDP-ET (at 10 μg/mouse & 50 μg/mouse) and calculated TH1:TH2 index then calculated as ([IgG2a+IgG3]/2)/(IgG1). Details of assay protocol as described below as in example 3.1.3. According to such calculation, an index value less than 1 stands for a TH2 polarization; an index value greater than 1 stands for a TH1 polarization.
Analysis of antigen specific IgG antibody subclasses (isotypes namely IgG1 or IgG2a or IgG3) was performed as mentioned in example 3.1.2, except at one step, where goat anti-mouse IgG1 or IgG2a or IgG3 HRP was used at a dilution of 1:5000 (in place of goat anti-mouse IgG) TH1:TH2 index obtained at 10 & 50 μg/mouse of MDP-ET is as shown in FIG. 5c.

[5] = system: OVA-specific IgG antibodies; assay: OVA-specific IgG in sera of immunized mice (indirect ELISA); type: in vivo, BALB/c mice; details: OVA 100 μg alone, s.c. Days 1 and 15, sera 2 weeks after last immunization
Procedure: Male BALB/c mice were immunized subcutaneously with OVA 100 μg alone or with OVA 100 μg dissolved in saline containing analogues (7.5, 15 or 30 μg) on Days 1 and 15. Sera were collected 2 weeks after the last immunization. OVA-specific IgG antibodies in the sera were measured by an Indirect ELISA.

Molecule: CCOC(=O)N[C@H]1C(O)O[C@H](CO)[C@@H](O)[C@@H]1O[C@H](C)C(=O)N[C@@H](C)C(=O)N[C@H](CCC(=O)O)C(N)=O (stereo partly drawn) [MDP-ET, (4R)-5-amino-4-((2S)-2-((2R)-2-(((3R,4R,5S,6R)-3-((ethoxycarbonyl)amino)-2,5-dihydroxy-6-(hydroxymethyl)tetrahydro-2H-pyran-4-yl)oxy)propanamido)propanamido)-5-oxopentanoic acid]
- IC50 (J774.2A cells): 410 µg/mL (≈ 785 µM)
- Th1:Th2 index from antibody titer of ova specific IgG subclasses ([1]; OVA-immunized mice): 1
- Splenocyte proliferation (splenocytes): inducing the LPS mediated splenocyte proliferation
- increase of HBsAg specific IgG antibody titer versus HBsAg alone ([2]; MDP-ET 10 μg/mouse): 4 fold
- HBsAg specific IgG antibody endpoint titer ([2]; MDP-ET 10 μg/mouse + HBsAg 20 μg): 51200 dilution
- increase of HBsAg specific IgG antibody titer versus HBsAg alone ([2]; MDP-ET 50 μg/mouse): 8 fold
- HBsAg specific IgG antibody endpoint titer ([2]; MDP-ET 50 μg/mouse + HBsAg 20 μg): 204800 dilution
- increase of humoral response (TH2), dose dependent ([2]; mice vaccinated with HBsAg in the presence of MDP-ET (10 and 50 μg/mouse)): 4-8 fold
- CRP levels (Wistar rats; 100 μg/animal, blood 24-36 hrs after injection, normal range 200-550 μg/ml in rats): 600 to 1000 µg/mL
- tolerated dose (Wistar rats; Wistar rats, i.m., 14 days observation): ≥ 100 μg/rat
- CRP levels (Wistar rats; after 14 days): normal
- macroscopic examination of organs/tissues (Wistar rats; day 14, site of injection, spleen, thymus, brain, lungs, heart, liver, kidney): No significant lesions or abnormalities
- clinical signs (Wistar rats; even at tested high dose (100 μg/animal), 14 days): no significant clinical signs
- weight gain (Wistar rats; high dose (100 μg/animal), compared to untreated animals): weight gain is less
- mortality (Wistar rats; i.m. 10, 50 and 100 μg/animal, 14 days): no mortality
- body temperature (Wistar rats; up to 14 days): no temperature raise
- increase of rPvRII specific IgG antibody titer versus rPvRII alone ([3]; MDP-ET 10 μg/mouse): 4 fold
- rPvRII specific IgG antibody endpoint titer ([3]; MDP-ET 10 μg/mouse + rPvRII): 51200 dilution
- EC50 (human NOD2): 421 nM
- TH1:TH2 index ([IgG2a+IgG3]/2)/(IgG1) [4]: 10

B1: OVA: Ovalbumin (OVA) antigen, given alone (protein, UniProt P01012 2-386, looked up)
Ovalbumin: GSIGAASMEFCFDVFKELKVHHANENIFYCPIAIMSALAMVYLGAKDSTRTQINKVVRFDKLPGFGDSIEAQCGTSVNVHSSLRDILNQITKPNDVYSFSLASRLYAEERYPILPEYLQCVKELYRGGLEPINFQTAADQARELINSWVESQTNGIIRNVLQPSSVDSQTAMVLVNAIVFKGLWEKAFKDEDTQAMPFRVTEQESKPVQMMYQIGLFRVASMASEKMKILELPFASGTMSMLVLLPDEVSGLEQLESIINFEKLTEWTSSNVMEERKIKVYLPRMKMEEKYNLTSVLMAMGITDVFSSSANLSGISSAESLKISQAVHAAHAEINEAGREVVGSAEAGVDAASVSEEFRADHPFLFCIKHIATNAVLFFGRCVSP
- Log(2) Total IgG1 Antibody Titre ([1]; OVA 100 μg alone): 14.39
- Log(2) Total IgG2a Antibody Titre ([1]; OVA 100 μg alone): 11.89
- Log(2) IgG Antibody Titre [5]: 12.64
